In patent US10813972B2, “Treatment of DNA damage and mitochondrial dysfunction using palm fruit juice” (BRANDEIS UNIVERSITY, priority 2013, dated 2020):

Tested on: mitochondrial DNA (HV2, CO2, ND1) of HepG2 cells
Test: mtDNA mutational load in HepG2 cells grown 30 days with INH or INH+PFJ (multiplex LATE-PCR/Lights On-Lights Off assay)
Format: cell-based, human
Settings: 88 μM INH, HepG2, 30 days
Method: A liver carcinoma cell line (HepG2 cells, ATCC, Manassas, Va.) was grown for 30 days in the presence of either 88 μM INH (Sigma, St. Louis, Mo.) or 88 μM INH+50 μg/ml gallic acid equivalents (GAE) PFJ. A culture without these additives served as a non-treated control. Cells were grown in Eagle's Minimum Essential Medium (ATCC Manassas, Va.). The media were supplemented with 25 mM HEPES, 10% fetal bovine serum (BioWest), 50 units/mL Penicillin G, 50 units/mL Streptomycin, and 0.25 μg Amphotericin B (HyClone Antibiotic/Antimycotic Solution 100×) in 6-well plates at 37° C. and 5% CO2. The media and additives were replenished every other day. The cells were passaged as per ATCC's instructions at an initial density of 1×10^5 cells/ml.
At the end of the culture period, each HepG2 culture was tripsinized, spun at 100×g for 15 min at 4° C. and resuspended in Dulbecco's phosphate buffer solution (Sigma, St. Louis, Mo.) at a concentration of 1×10^3 cells/ml. DNA from these cultures was extracted by placing 5 μl of cell suspension into 32.5 μl volume of a lysis buffer containing 100 μg/ml proteinase K, 10 mM Tris-Cl pH 8.3, and 5 μM SDS (sodium-dodecyl-sulfate) and heating to 50° C. for 2 hours followed by 95° C. for 15 minutes. The samples were then stored at −20° C. […]

## NNC(=O)c1ccncc1 [INH, isoniazid]
  mtDNA mutational load (fluorescent signature changes indicative of mitochondrial DNA mutations): increases mtDNA mutational load
